Source: PubChem BioAssay (NCI)
“And” between values parts separate entries of the source, which are not always exact repeats. Equal values may be shown once.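 48-hour exposure; five concentrations; linearly interpolated endpoints. TGI is the concentration that stops growth completely.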

Columns and labels:
Assay in all cases: inhibition of tumour cell growth, NCI panel, 48 h
COLO 205 colon = test system: COLO 205 colon
IGROV1 ovarian = test system: IGROV1 ovarian
A549 NSCLC = test system: A549 NSCLC
SR leukemia = test system: SR leukemia
PC-3 prostate = test system: PC-3 prostate
HL-60(TB) leukemia = test system: HL-60(TB) leukemia
T-47D breast = test system: T-47D breast
UACC-62 melanoma = test system: UACC-62 melanoma
RPMI-8226 leukemia = test system: RPMI-8226 leukemia
NCI-H23 lung = test system: NCI-H23 lung
MCF7 breast = test system: MCF7 breast
EKVX NSCLC = test system: EKVX NSCLC
MOLT-4 leukemia = test system: MOLT-4 leukemia
BT-549 breast = test system: BT-549 breast
A498 renal = test system: A498 renal
CCRF-CEM leukemia = test system: CCRF-CEM leukemia
NCI/ADR-RES ovarian = test system: NCI/ADR-RES ovarian
HOP-92 NSCLC = test system: HOP-92 NSCLC
NCI-H460 lung = test system: NCI-H460 lung
SN12C renal = test system: SN12C renal
CAKI-1 renal = test system: CAKI-1 renal
SK-MEL-5 melanoma = test system: SK-MEL-5 melanoma
HT29 colon = test system: HT29 colon
SNB-75 CNS = test system: SNB-75 CNS
KM12 colon = test system: KM12 colon
ACHN renal = test system: ACHN renal
LOX IMVI melanoma = test system: LOX IMVI melanoma
MDA-N = test system: MDA-N
SK-MEL-2 melanoma = test system: SK-MEL-2 melanoma
MDA-MB-435 = test system: MDA-MB-435
SK-OV-3 ovarian = test system: SK-OV-3 ovarian
SK-MEL-28 melanoma = test system: SK-MEL-28 melanoma
SNB-19 CNS = test system: SNB-19 CNS
HOP-62 NSCLC = test system: HOP-62 NSCLC
786-0 renal = test system: 786-0 renal
OVCAR-8 ovarian = test system: OVCAR-8 ovarian
NCI-H226 lung = test system: NCI-H226 lung
HS 578T breast = test system: HS 578T breast
SW-620 colon = test system: SW-620 colon
OVCAR-3 ovarian = test system: OVCAR-3 ovarian
U251 CNS = test system: U251 CNS
TK-10 renal = test system: TK-10 renal
RXF 393 renal = test system: RXF 393 renal
OVCAR-5 ovarian = test system: OVCAR-5 ovarian
NCI-H522 lung = test system: NCI-H522 lung
DU-145 prostate = test system: DU-145 prostate
M14 melanoma = test system: M14 melanoma
SF-539 CNS = test system: SF-539 CNS
UACC-257 melanoma = test system: UACC-257 melanoma
OVCAR-4 ovarian = test system: OVCAR-4 ovarian
HCT-15 colon = test system: HCT-15 colon
HCT-116 colon = test system: HCT-116 colon
HCC-2998 colon = test system: HCC-2998 colon
K-562 leukemia = test system: K-562 leukemia
MALME-3M melanoma = test system: MALME-3M melanoma
UO-31 renal = test system: UO-31 renal
MDA-MB-231 breast = test system: MDA-MB-231 breast
SF-268 CNS = test system: SF-268 CNS
SF-295 CNS = test system: SF-295 CNS

For `CNc1cc2c(c3ccccc13)C(CCl)CN2C(=O)c1cc2cc(OC)c(OC)c(OC)c2[nH]1` (centres undefined), the TGI (COLO 205 colon) was 0.0114 µM, the TGI (IGROV1 ovarian) was 0.128 µM and the TGI (A549 NSCLC) was > 100 µM. For the same compound, the TGI (SR leukemia) was 0.00402 µM, the TGI (PC-3 prostate) was 0.0223 µM and 0.116 µM and the TGI (HL-60(TB) leukemia) was 0.000667 µM. For the same compound, the TGI (T-47D breast) was 0.0756 µM and 0.405 µM, the TGI (UACC-62 melanoma) was 0.00209 µM and the TGI (RPMI-8226 leukemia) was 0.0649 µM. It also gave a TGI (NCI-H23 lung) of 0.00191 µM, a TGI (MCF7 breast) of 0.131 µM and a TGI (EKVX NSCLC) of 0.0155 µM. The TGI (MOLT-4 leukemia) was 0.023 µM, the TGI (BT-549 breast) was 0.0333 µM and the TGI (A498 renal) was 0.00762 µM. For the same compound, the TGI (CCRF-CEM leukemia) was 0.142 µM, the TGI (NCI/ADR-RES ovarian) was 0.0156 µM and the TGI (HOP-92 NSCLC) was 0.0466 µM. For the same compound, the TGI (NCI-H460 lung) was 0.00226 µM, the TGI (SN12C renal) was 0.00628 µM and 0.0118 µM and the TGI (CAKI-1 renal) was 0.00431 µM and 0.022 µM. It also gave a TGI (SK-MEL-5 melanoma) of 0.00435 µM, a TGI (HT29 colon) of 0.168 µM and a TGI (SNB-75 CNS) of 0.00802 µM. It also gave a TGI (KM12 colon) of 0.103 µM, a TGI (ACHN renal) of 0.00154 µM and a TGI (LOX IMVI melanoma) of 0.00811 µM. It also gave a TGI (MDA-N) of 0.00856 µM, a TGI (SK-MEL-2 melanoma) of 0.0197 µM and a TGI (MDA-MB-435) of 0.0131 µM. For the same compound, the TGI (SK-OV-3 ovarian) was 0.894 µM and 0.982 µM, the TGI (SK-MEL-28 melanoma) was 0.0351 µM and the TGI (SNB-19 CNS) was 0.107 µM. The TGI (HOP-62 NSCLC) was 0.0319 µM, the TGI (786-0 renal) was 0.00346 µM and the TGI (OVCAR-8 ovarian) was 0.0124 µM. For the same compound, the TGI (NCI-H226 lung) was 0.067 µM, the TGI (HS 578T breast) was 0.0379 µM and the TGI (SW-620 colon) was 0.00733 µM. The TGI (OVCAR-3 ovarian) was 1.32 µM and the TGI (U251 CNS) was 0.133 µM.

Compound `O=[N+]([O-])C(=C(Nc1ccccc1)Nc1ccccc1)C(Cl)=C(Cl)Cl` has a TGI (COLO 205 colon) of 34.1 µM, a TGI (IGROV1 ovarian) of 27.2 µM and a TGI (A549 NSCLC) of 35.2 µM. It also gave a TGI (TK-10 renal) of 38 µM, a TGI (RXF 393 renal) of 31.8 µM and a TGI (PC-3 prostate) of 29.6 µM. It also gave a TGI (OVCAR-5 ovarian) of 41.8 µM, a TGI (HL-60(TB) leukemia) of 27.7 µM and a TGI (T-47D breast) of 50.9 µM. It also gave a TGI (NCI-H522 lung) of 39.6 µM, a TGI (UACC-62 melanoma) of 32.2 µM and a TGI (RPMI-8226 leukemia) of 65.9 µM. The TGI (NCI-H23 lung) was 30 µM, the TGI (MCF7 breast) was 34.4 µM and the TGI (EKVX NSCLC) was 33.1 µM. It also gave a TGI (MOLT-4 leukemia) of 1.09 µM, a TGI (BT-549 breast) of 29.6 µM and a TGI (DU-145 prostate) of 34.5 µM. The TGI (M14 melanoma) was 36.1 µM, the TGI (A498 renal) was 26.2 µM and the TGI (CCRF-CEM leukemia) was 28.1 µM. It also gave a TGI (NCI/ADR-RES ovarian) of 58.2 µM, a TGI (SF-539 CNS) of 35.4 µM and a TGI (HOP-92 NSCLC) of 33.9 µM. It also gave a TGI (NCI-H460 lung) of 33 µM, a TGI (SN12C renal) of 35.5 µM and a TGI (UACC-257 melanoma) of 30.7 µM. The TGI (CAKI-1 renal) was 33.4 µM, the TGI (SK-MEL-5 melanoma) was 29.2 µM and the TGI (HT29 colon) was 34.6 µM. The TGI (SNB-75 CNS) was 36.5 µM, the TGI (OVCAR-4 ovarian) was 24.8 µM and the TGI (KM12 colon) was > 55.5 µM. It also gave a TGI (ACHN renal) of 30.7 µM, a TGI (HCT-15 colon) of 32.3 µM and a TGI (LOX IMVI melanoma) of 25.1 µM. For the same compound, the TGI (HCT-116 colon) was 25.5 µM, the TGI (HCC-2998 colon) was 37.9 µM and the TGI (MDA-N) was 27.2 µM. It also gave a TGI (K-562 leukemia) of 33.4 µM, a TGI (SK-MEL-2 melanoma) of 28.3 µM and a TGI (MALME-3M melanoma) of 41.9 µM. It also gave a TGI (UO-31 renal) of 39.6 µM, a TGI (MDA-MB-435) of 28.7 µM and a TGI (MDA-MB-231 breast) of 33.3 µM. The TGI (SF-268 CNS) was 40 µM, the TGI (SK-OV-3 ovarian) was 68.5 µM and the TGI (SK-MEL-28 melanoma) was 35.7 µM. The TGI (SNB-19 CNS) was 32.9 µM, the TGI (HOP-62 NSCLC) was 44.7 µM and the TGI (786-0 renal) was 29.4 µM. For the same compound, the TGI (OVCAR-8 ovarian) was 48.5 µM, the TGI (SF-295 CNS) was 36.4 µM and the TGI (NCI-H226 lung) was 40.4 µM. The TGI (HS 578T breast) was 55.5 µM, the TGI (SW-620 colon) was 30.9 µM and the TGI (OVCAR-3 ovarian) was 33.5 µM. The TGI (U251 CNS) was 35.3 µM.
